Assay results from ChEMBL document CHEMBL1201862, “PubChem BioAssay data set” (2004).
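Five concentrations, 48 hours, 96-well plates. Abbreviation: GI50, concentration required for 50% inhibition of growth.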 The source made the active and inactive calls. Rule as the data show it: active = GI50 up to about 1.1 µM and inactive = higher.

How the values were obtained:
Assay in all cases: NCI anticancer screen, dose series, 48 h
CAKI-1 = system: CAKI-1
CCRF-CEM = system: CCRF-CEM
DU-145 = system: DU-145
HCT-116 = system: HCT-116
HL-60 = system: HL-60
K562 = system: K562
M14 = system: M14
MCF7 = system: MCF7
NCI-H23 = system: NCI-H23
OVCAR-3 = system: OVCAR-3
SF-295 = system: SF-295
SNB-75 = system: SNB-75
SR = system: SR
T47D = system: T47D
TK-10 = system: TK-10
UO-31 = system: UO-31
HCC 2998 = system: HCC 2998

Q: What does the source list for `CC(C)CCC1(CCN)C(=O)NC(=O)NC1=O`?
A: GI50 (CAKI-1): > 100 µM (inactive); GI50 (CCRF-CEM): 19.6 µM (inactive); GI50 (DU-145): > 100 µM (inactive); GI50 (HCT-116): > 100 µM (inactive); GI50 (HL-60): 38.2 µM (inactive); GI50 (K562): 16.3 µM (inactive); GI50 (M14): > 100 µM (inactive); GI50 (MCF7): > 100 µM (inactive); GI50 (NCI-H23): > 100 µM (inactive); GI50 (OVCAR-3): > 100 µM (inactive); GI50 (SF-295): > 100 µM (inactive); GI50 (SNB-75): > 100 µM (inactive); GI50 (SR): 6.68 µM (inactive); GI50 (T47D): > 100 µM (inactive); GI50 (TK-10): > 100 µM (inactive); GI50 (UO-31): > 100 µM (inactive)

Q: Which results are given for `O=C(O)CCNCC(=O)O`?
A: GI50 (CAKI-1): > 100 µM (inactive); GI50 (CCRF-CEM): > 100 µM (inactive); GI50 (DU-145): > 100 µM (inactive); GI50 (HCT-116): > 100 µM (inactive); GI50 (HL-60): > 100 µM (inactive); GI50 (K562): > 100 µM (inactive); GI50 (M14): > 100 µM (inactive); GI50 (MCF7): > 100 µM (inactive); GI50 (NCI-H23): > 100 µM (inactive); GI50 (OVCAR-3): > 100 µM (inactive); GI50 (SF-295): > 100 µM (inactive); GI50 (SNB-75): > 100 µM (inactive); GI50 (SR): > 100 µM (inactive); GI50 (T47D): > 100 µM (inactive); GI50 (TK-10): > 100 µM (inactive); GI50 (UO-31): > 100 µM (inactive)

Q: For `CCOC(=O)C1=C(C)NC(=O)NC1c1coc2cc(C)cc(C)c2c1=O` (stereo not given), which GI50 (CAKI-1) is on record?
A: > 100 µM (inactive)

Q: What about the GI50 (CCRF-CEM) of the same compound?
A: 37.7 µM (inactive)

Q: What about the GI50 (DU-145) of the same compound?
A: > 100 µM (inactive)

Q: What about the GI50 (HCT-116) of the same compound?
A: 36.9 µM (inactive)

Q: And the GI50 (HL-60)?
A: > 54.5 µM (inactive)

Q: What about the GI50 (K562) of the same compound?
A: 30.7 µM (inactive)

Q: What about the GI50 (M14) of the same compound?
A: 34.7 µM (inactive)

Q: And the GI50 (MCF7)?
A: 36.2 µM (inactive)

Q: And the GI50 (NCI-H23)?
A: > 86.7 µM (inactive)

Q: What about the GI50 (OVCAR-3) of the same compound?
A: 24.5 µM (inactive)

Q: And the GI50 (SF-295)?
A: 47.6 µM (inactive)

Q: What about the GI50 (SNB-75) of the same compound?
A: 3.27 µM (inactive)

Q: And the GI50 (SR)?
A: 10.2 µM (inactive)

Q: What about the GI50 (T47D) of the same compound?
A: > 69.5 µM (inactive)

Q: What about the GI50 (TK-10) of the same compound?
A: 38.9 µM (inactive)

Q: What about the GI50 (UO-31) of the same compound?
A: 44 µM (inactive)

Q: With `O=C(/C=C/c1ccccc1)CCN1CCN(CCC(=O)/C=C/c2ccccc2)CC1` as the compound, how does the GI50 (CAKI-1) read?
A: 17.2 µM (inactive)

Q: And the GI50 (CCRF-CEM)?
A: 3.29 µM (inactive)

Q: What about the GI50 (DU-145) of the same compound?
A: 17.6 µM (inactive)

Q: And the GI50 (HCC 2998)?
A: 16.7 µM (inactive)

Q: What about the GI50 (HCT-116) of the same compound?
A: 2.16 µM (inactive)

Q: What about the GI50 (HL-60) of the same compound?
A: 3.64 µM (inactive)

Q: And the GI50 (K562)?
A: 3.97 µM (inactive)

Q: And the GI50 (M14)?
A: 11.7 µM (inactive)

Q: And the GI50 (MCF7)?
A: 5.81 µM (inactive)

Q: What about the GI50 (NCI-H23) of the same compound?
A: 16 µM (inactive)

Q: And the GI50 (OVCAR-3)?
A: 16.8 µM (inactive)

Q: What about the GI50 (SF-295) of the same compound?
A: 17.2 µM (inactive)

Q: And the GI50 (SNB-75)?
A: 15.8 µM (inactive)

Q: And the GI50 (T47D)?
A: 14.9 µM (inactive)

Q: What about the GI50 (TK-10) of the same compound?
A: 16.4 µM (inactive)

Q: And the GI50 (UO-31)?
A: 16.9 µM (inactive)

Q: For `CC(C)(C)OC(=O)Cn1ncn(NC(=O)Cc2ccccc2)c1=S`, which GI50 (CAKI-1) is on record?
A: > 10 µM (inactive)

Q: And the GI50 (CCRF-CEM)?
A: > 10 µM (inactive)

Q: And the GI50 (DU-145)?
A: > 10 µM (inactive)

Q: And the GI50 (HCC 2998)?
A: > 10 µM (inactive)

Q: What about the GI50 (HCT-116) of the same compound?
A: > 10 µM (inactive)

Q: And the GI50 (K562)?
A: > 10 µM (inactive)

Q: And the GI50 (M14)?
A: > 10 µM (inactive)

Q: What about the GI50 (MCF7) of the same compound?
A: > 10 µM (inactive)

Q: What about the GI50 (NCI-H23) of the same compound?
A: > 10 µM (inactive)

Q: And the GI50 (OVCAR-3)?
A: > 10 µM (inactive)

Q: What about the GI50 (SF-295) of the same compound?
A: > 10 µM (inactive)

Q: What about the GI50 (SNB-75) of the same compound?
A: > 10 µM (inactive)

Q: And the GI50 (SR)?
A: > 10 µM (inactive)

Q: What about the GI50 (T47D) of the same compound?
A: > 10 µM (inactive)

Q: What about the GI50 (TK-10) of the same compound?
A: > 10 µM (inactive)

Q: What about the GI50 (UO-31) of the same compound?
A: > 10 µM (inactive)

Q: Which GI50 (CAKI-1) does the source give for `O=C(Nc1ccc(Cl)cc1)Oc1ccc(C(=S)Nc2ccc(Br)cc2)cc1` here?
A: 7.78 µM (inactive)

Q: And the GI50 (CCRF-CEM)?
A: 3.04 µM (inactive)

Q: And the GI50 (DU-145)?
A: 25.8 µM (inactive)

Q: What about the GI50 (HCC 2998) of the same compound?
A: 15.4 µM (inactive)

Q: What about the GI50 (HCT-116) of the same compound?
A: 10.3 µM (inactive)

Q: What about the GI50 (HL-60) of the same compound?
A: 1.61 µM (inactive)

Q: What about the GI50 (K562) of the same compound?
A: 2.36 µM (inactive)

Q: What about the GI50 (M14) of the same compound?
A: 3.43 µM (inactive)

Q: What about the GI50 (MCF7) of the same compound?
A: 11.7 µM (inactive)

Q: What about the GI50 (NCI-H23) of the same compound?
A: 27.7 µM (inactive)

Q: And the GI50 (OVCAR-3)?
A: 16.1 µM (inactive)

Q: What about the GI50 (SF-295) of the same compound?
A: 0.438 µM (active)

Q: And the GI50 (SR)?
A: 5.06 µM (inactive)

Q: And the GI50 (T47D)?
A: 10.5 µM (inactive)

Q: What about the GI50 (UO-31) of the same compound?
A: 18.2 µM (inactive)

Q: How did the GI50 (CAKI-1) turn out when `CCN1CCN(c2nc3ccccc3nc2C(=O)c2ccc(OC)cc2)CC1` was run?
A: 39.8 µM (inactive)

Q: What about the GI50 (DU-145) of the same compound?
A: > 100 µM (inactive)

Q: What about the GI50 (HCC 2998) of the same compound?
A: > 100 µM (inactive)

Q: What about the GI50 (HCT-116) of the same compound?
A: 6.07 µM (inactive)

Q: And the GI50 (HL-60)?
A: > 100 µM (inactive)

Q: What about the GI50 (K562) of the same compound?
A: 43.9 µM (inactive)

Q: And the GI50 (M14)?
A: 15 µM (inactive)

Q: And the GI50 (MCF7)?
A: 7.1 µM (inactive)

Q: And the GI50 (NCI-H23)?
A: 27 µM (inactive)

Q: And the GI50 (OVCAR-3)?
A: 69.7 µM (inactive)

Q: And the GI50 (SF-295)?
A: 32.7 µM (inactive)

Q: And the GI50 (SNB-75)?
A: 37.2 µM (inactive)

Q: And the GI50 (SR)?
A: 11.7 µM (inactive)

Q: What about the GI50 (T47D) of the same compound?
A: > 100 µM (inactive)

Q: What about the GI50 (TK-10) of the same compound?
A: 22.6 µM (inactive)

Q: What about the GI50 (UO-31) of the same compound?
A: 19.7 µM (inactive)

Q: Which results are given for `CC1(C)C(CC(=O)O)CCCC1CC(=O)O` (stereo not given)?
A: GI50 (CAKI-1): > 100 µM (inactive); GI50 (CCRF-CEM): > 100 µM (inactive); GI50 (DU-145): > 100 µM (inactive); GI50 (HCT-116): > 100 µM (inactive); GI50 (K562): > 100 µM (inactive); GI50 (M14): > 100 µM (inactive); GI50 (MCF7): > 100 µM (inactive); GI50 (NCI-H23): > 100 µM (inactive); GI50 (OVCAR-3): > 100 µM (inactive); GI50 (SF-295): > 100 µM (inactive); GI50 (SR): > 100 µM (inactive); GI50 (T47D): > 100 µM (inactive); GI50 (TK-10): > 100 µM (inactive); GI50 (UO-31): > 100 µM (inactive)
